{
  "source": "paper PMC8191380",
  "about": "(Nucleosides, nucleotides & nucleic acids, 2019)",
  "key": {"[1]": {"assay": "Cytotoxicity in MT-2 cells", "format": "cell-based", "conditions": "human"}, "[2]": {"system": "HBV", "assay": "Anti-HBV assay in HBV-producing HepG2 2.2.15 cells", "format": "cell-based, Hepatitis B virus", "conditions": "read-out: EC50 (50% effective concentration; concentration that inhibits 50% of virus replication)"}, "[3]": {"system": "HBV", "conditions": "read-out: anti-HBV activity EC50; cited from earlier work"}, "[4]": {"system": "wild-type HBV", "conditions": "cited from earlier work"}, "[5]": {"system": "HIV", "conditions": "cited from earlier work"}, "[6]": {"system": "entecavir-resistant HBV", "conditions": "cited from earlier work"}, "[7]": {"system": "HIV-1", "conditions": "cited from earlier work"}, "[8]": {"system": "HBV", "conditions": "cited from earlier work; for EC50: read-out: anti-HBV activity EC50"}, "[9]": {"system": "MT-2 cells", "assay": "Cytotoxicity in MT-2 cells", "format": "cell-based", "conditions": "for CC50: read-out: CC50 (50% cytotoxic concentration)"}, "[10]": {"system": "HBV", "conditions": "read-out: anti-HBV activity EC50; cited from earlier work", "remark": "listed apart in the source"}, "[11]": {"conditions": "cited from earlier work"}, "[12]": {"system": "HIV", "conditions": "read-out: anti-HIV activity EC50; reported in 1992; cited from earlier work"}, "[13]": {"conditions": "Hepatitis B virus, HepG2 2.2.15, 336 h"}, "[14]": {"conditions": "HepG2 2.2.15 cells, day 14, HBV DNA"}},
  "note": "Like-named read-outs stand apart in the source and are kept apart here.",
  "data": [
    {"molecule": "CCNc1nc(=O)n([C@H]2C[C@H](O)[C@](CO)(N=[N+]=[N-])O2)cc1C", "note": "[Compound 14, 4′-Azido-2′-deoxy-N^4-ethyl-5-methylcytidine]", "values": [
      {"measurement": "CC50", "setting": "[1]", "value": "> 100", "unit": "µM"},
      {"measurement": "EC50", "setting": "[2]; [13]", "value": "> 100", "unit": "µM"}
    ]},
    {"molecule": "[N-]=[N+]=N[C@]1(CO)O[C@@H](n2ccc(N)nc2=O)[C@H](F)[C@@H]1O", "note": "[Compound 5, 2′-deoxy-2′-P-fluoro-4′-azido cytidine]", "values": [
      {"measurement": "EC50", "setting": "[3]", "value": 0.12, "unit": "µM"}
    ]},
    {"molecule": "N#C[C@]1(CO)O[C@@H](n2cnc3c(N)nc(N)nc32)C[C@@H]1O", "note": "[Compound 2, 4′-cyano-2-amino-2′-deoxyadenosine]", "values": [
      {"measurement": "replication of wild-type HBV (in words)", "setting": "[4]", "value": "block the replication"},
      {"measurement": "anti-HIV activity (in words)", "setting": "[5]", "value": "potent anti-HIV activity"},
      {"measurement": "replication of entecavir-resistant HBV (in words)", "setting": "[6]", "value": "block the replication"}
    ]},
    {"molecule": "[N-]=[N+]=N[C@]1(CO)O[C@@H](n2cnc3c(N)nc(N)nc32)C[C@@H]1O", "note": "[Compound 4, 4′-azido-2-amino-2′-deoxyadenosine]", "values": [
      {"measurement": "potency against HIV-1 (in words)", "setting": "[7]", "value": "highly potent"},
      {"measurement": "potency against HBV (in words)", "setting": "[8]", "value": "highly potent"},
      {"measurement": "EC50", "setting": "[8]", "value": 0.0051, "unit": "µM"}
    ]},
    {"molecule": "N#C[C@]1(CO)O[C@@H](n2cnc3c(=O)[nH]c(N)nc32)C[C@@H]1O", "note": "[Compound 1, 4′-cyano-2′-deoxyguanosine]", "values": [
      {"measurement": "replication of wild-type HBV (in words)", "setting": "[4]", "value": "block the replication"},
      {"measurement": "anti-HIV activity (in words)", "setting": "[5]", "value": "potent anti-HIV activity"},
      {"measurement": "replication of entecavir-resistant HBV (in words)", "setting": "[6]", "value": "block the replication"}
    ]},
    {"molecule": "CNc1nc(=O)n([C@H]2C[C@H](O)[C@](CO)(N=[N+]=[N-])O2)cc1C", "note": "[Compound 13, 4′-Azido-2′-deoxy-N4,5-dimethylcytidine]", "values": [
      {"measurement": "CC50", "setting": "[1]", "value": "> 100", "unit": "µM"},
      {"measurement": "EC50", "setting": "[2]; [13]", "value": "> 100", "unit": "µM"}
    ]},
    {"molecule": "Cc1cn([C@H]2C[C@H](O)[C@](CO)(N=[N+]=[N-])O2)c(=O)nc1N", "note": "[Compound 10, 4′-Azido-2′-deoxy-5-methylcytidine]", "values": [
      {"measurement": "CC50", "setting": "[1]", "value": "> 100", "unit": "µM"},
      {"measurement": "no cytotoxicity up to (concentration)", "setting": "[9]", "value": "> 100", "unit": "µM"},
      {"measurement": "EC50", "setting": "[2]; [13]", "value": "5.99 ± 5.54", "unit": "µM"}
    ]},
    {"molecule": "[N-]=[N+]=N[C@]1(CO)O[C@@H](n2cnc3c(=O)[nH]c(N)nc32)C[C@@H]1O", "note": "[Compound 3, 4′-azido-2′-deoxyguanosine]", "values": [
      {"measurement": "potency against HIV-1 (in words)", "setting": "[7]", "value": "highly potent"},
      {"measurement": "potency against HBV (in words)", "setting": "[8]", "value": "highly potent"},
      {"measurement": "EC50", "setting": "[8]", "value": 0.0097, "unit": "µM"}
    ]},
    {"molecule": "COc1nc(=O)n(C2CC(O)C(CO)(N=[N+]=[N-])O2)cc1C", "note": "(stereo not shown) [Compound 11, 4′-Azido-O^4-methylthymidine]", "values": [
      {"measurement": "CC50", "setting": "[9]", "value": "> 100", "unit": "µM"},
      {"measurement": "EC50", "setting": "[2]; [14]", "value": "> 100", "unit": "µM"}
    ]},
    {"molecule": "Cc1cn([C@H]2C[C@H](F)[C@@H](CO)O2)c(=O)nc1N", "note": "[Compound 8, FddMeC]", "values": [
      {"measurement": "EC50", "setting": "[10]", "value": 0.54, "unit": "µM"}
    ]},
    {"molecule": "[N-]=[N+]=N[C@]1(CO)O[C@@H](n2ccc(N)nc2=O)C[C@@H]1O", "note": "[4′-azido-2′-deoxycytidine]", "values": [
      {"measurement": "cytotoxicity CC25", "setting": "[11]", "value": 0.21, "unit": "µM"}
    ]},
    {"molecule": "Cc1cn([C@H]2C[C@H](O)[C@](CO)(N=[N+]=[N-])O2)c(=O)nc1NC1CC1", "note": "[Compound 15, 4′-Azido-N′-cyclopropyl-2′-deoxy-5-methylcytidine]", "values": [
      {"measurement": "CC50", "setting": "[9]", "value": "> 100", "unit": "µM"},
      {"measurement": "EC50", "setting": "[2]; [14]", "value": "> 100", "unit": "µM"}
    ]},
    {"molecule": "Cc1cn([C@H]2C[C@H](O)[C@](CO)(N=[N+]=[N-])O2)c(=O)[nH]c1=O", "note": "[Compound 6, 4′-azido thymidine]", "values": [
      {"measurement": "EC50", "setting": "[12]", "value": 0.01, "unit": "µM"},
      {"measurement": "CC50", "setting": "[1]", "value": "> 100", "unit": "µM"},
      {"measurement": "no cytotoxicity up to (concentration)", "setting": "[9]", "value": "> 100", "unit": "µM"},
      {"measurement": "EC50", "setting": "[2]; [13]", "value": "0.63 ± 0.29", "unit": "µM"}
    ]},
    {"molecule": "C=C1[C@H](CO)[C@@H](O)C[C@@H]1n1cnc2c(=O)[nH]c(N)nc21", "note": "[Entecavir]", "values": [
      {"measurement": "CC50", "setting": "[1]", "value": "57.2 ± 5.2", "unit": "µM"},
      {"measurement": "EC50", "setting": "[2]; [13]", "value": "0.00675 ± 0.000353", "unit": "µM"}
    ]},
    {"molecule": "CCOc1nc(=O)n([C@H]2C[C@H](O)[C@](CO)(N=[N+]=[N-])O2)cc1C", "note": "[Compound 12, 4′-Azido-O^4-ethylthymidine]", "values": [
      {"measurement": "CC50", "setting": "[9]", "value": "> 100", "unit": "µM"},
      {"measurement": "EC50", "setting": "[2]; [14]", "value": "> 100", "unit": "µM"}
    ]}
  ]
}
